Test results reported in article PMC12118597 (Science Advances, 2025).
Read-outs that look alike come from different tables or passages of the source.

Target: SARS-CoV-2 NSP3 macrodomain (Mac1) (Severe acute respiratory syndrome coronavirus 2, UniProt P0DTD1)
Assay: biochemical
Format: binding
[1] = single dose concentration 200 μM (TS-FrankenROCS series)
[2] = compound at 200 μM, mean of three to four technical replicates, read-out: % competition at 200 μM (preliminary HTRF screen)
[3] = SARS CoV-2 macrodomain HTRF assay, single dose concentration 200 μM
[4] = Single dose, concentration 200 μM
[5] = SARS CoV-2 macrodomain HTRF assay, single dose concentration 200 μM, read-out: Average % competition
[6] = read-out: IC50 (confirmatory HTRF dose-response screen)
[7] = SARS CoV-2 macrodomain HTRF assay
[8] = SARS CoV-2 macrodomain HTRF assay, dose-response, read-out: IC50

SMILES: CC1c2ccsc2CCN1C(=O)Cc1csc(-c2ccccc2)n1 (stereo not drawn) [AVI-287]
- Average % competition: 0%

SMILES: O=C1COc2cc(C(=O)N3CC(C(=O)O)c4ccccc43)ccc2N1 (stereo not drawn) [AVI-289]
- IC50 (dose-response, read-out: IC50): > 1000 µM

SMILES: Cc1nc2cc(NC(=O)C3CC(=O)Nc4ccccc43)ccc2o1 (stereo not drawn) [AVI-292]
- Average % competition: 0%

SMILES: Cc1ncc(CN(C)C(=O)c2cccc(N)c2F)s1 [AVI-293]
- IC50 (dose-response, read-out: IC50): > 1000 µM
- Average % competition [1]: 14%

SMILES: CC1CN(C(=O)c2ccccc2S(C)(=O)=O)c2cccnc2O1 (stereo not drawn) [AVI-294]
- Average % competition: 13%

SMILES: CCCC1CCCC1C(=O)N[C@H]1CCc2nc(N)sc2C1 (stereo partly drawn) [AVI-298]
- Average % competition: <10%

SMILES: CC(=O)Nc1ccc(S(=O)(=O)CCCN2C(=O)CC(C)(C(C)C)C2=O)cc1 (stereo not drawn) [AVI-299]
- Average % competition: 19%

SMILES: O=C(NCCCN1C(=O)NC2(CCCC2)C1=O)c1ccc(=O)[nH]c1 [AVI-300]
- Average % competition: 8%

SMILES: Cc1ccc2c(c1)C(=O)N(CCC(=O)Nc1cnc3c(c1)c(C)nn3C)C2=O [AVI-301]
- Average % competition: 16%

SMILES: Cc1nnc2n1CCN(C(=O)CN1C(=O)CCOc3ccccc31)C2 [AVI-302]
- Average % competition: 0%

SMILES: CC(OC(=O)c1ccc2nc(N)sc2c1)C(=O)N1CCCCCC1 (stereo not drawn) [AVI-304]
- Average % competition: 0%

SMILES: CNC(=O)c1ccc(NC(=O)C2CC(=O)Nc3ccccc32)cc1 (stereo not drawn) [AVI-305]
- Average % competition: 0%

SMILES: Cc1nc(-c2cccc(NC(=O)NCc3cccs3)c2)n[nH]1 [AVI-306]
- IC50 (dose-response, read-out: IC50): > 1000 µM

SMILES: O=C1CC(C(=O)Nc2nc3c(s2)CCCC3)c2ccccc2N1 (stereo not drawn) [AVI-307]
- Average % competition: 0%

SMILES: c1ccn2c(Sc3ncnc4ccsc34)nnc2c1 [AVI-308]
- Average % competition: 0%

SMILES: CNS(=O)(=O)c1cc(C(=O)N2CCOc3ccccc32)n(C)c1 [AVI-309]
- Average % competition: 0%

SMILES: Cc1ccc(O)c(C(=O)c2cnn3c(N)nnc3c2)c1 [AVI-310]
- Average % competition: 0%

SMILES: O=C(O)C1CN(C(=O)c2cccc3[nH]ccc23)c2ccccc21 (stereo not drawn) [AVI-314]
- IC50 (dose-response, read-out: IC50): > 1000 µM

SMILES: CC(=O)Nc1ccc(NC(=O)CSc2nnnn2C2CCCC2)cc1 [AVI-315]
- Average % competition: 0%

SMILES: O=C(c1cc(C2CCCCC2)[nH]n1)N1CCCC(O)(C(F)(F)F)CC1 (stereo not drawn) [AVI-318]
- Average % competition: 13%

SMILES: O=C(O)C1CN(C(=O)c2ccc3n[nH]nc3c2)c2ccccc21 (stereo not drawn) [AVI-319]
- Average % competition: 25%

SMILES: Cc1ccc(C)c(CN2C(=O)NC(C)(Cc3ccc4c(c3)OCO4)C2=O)c1 (stereo not drawn) [AVI-320]
- Average % competition: 18%

SMILES: Cc1noc(NCc2cc3ccccc3[nH]c2=O)n1 [AVI-322]
- Average % competition: 0%

SMILES: O=C(O)C1CN(C(=O)c2ccc3c(c2)OCCO3)CCO1 (stereo not drawn) [AVI-323]
- Average % competition: 7%

SMILES: Nc1ncnc(N2CCC(C(F)(F)F)C3(CCC3)C2)c1Cl (stereo not drawn) [AVI-324]
- Average % competition: <10%

SMILES: CCOc1ccc(-c2nc(CC(=O)N3CCn4cccc4C3C)cs2)cc1 (stereo not drawn) [AVI-325]
- Average % competition: 0%

SMILES: O=C(O)C1CCc2nnc(-c3ccc(F)cc3)n2C1 (stereo not drawn) [AVI-326]
- Average % competition: 15%

SMILES: Cc1nn(C)c2sc(C(=O)N3CC(C(=O)O)c4ccccc43)cc12 (stereo not drawn) [AVI-327]
- Average % competition: 0%

SMILES: NC(=O)N1CCC[C@H]1C(=O)Nc1ccc2ncnn2c1 [AVI-330]
- Average % competition: 14%

SMILES: Nc1ncnc2sc3c(c12)CCN(C(=O)[C@H]1CC=CCC1)C3 [AVI-331]
- Average % competition: <10%

SMILES: N#Cc1cnc(CSc2nc(-c3ccccc3)co2)nc1N [AVI-332]
- Average % competition: <10%

SMILES: O=C(O)c1ccc2c(c1)C(NC(=O)C1CCn3ncnc3C1)CCC2 (stereo not drawn) [AVI-333]
- Average % competition: 21%

SMILES: CC1CCCC1OC(=O)Cn1cnc2c1c(=O)n(C)c(=O)n2C (stereo not drawn) [AVI-335]
- Average % competition: <10%

SMILES: Cc1ccc(N2CCN(c3ncnc(-c4ccccc4)n3)CC2=O)cc1 [AVI-336]
- Average % competition: <10%

SMILES: CC(C(=O)NCc1c(C(=O)O)[nH]c2ccccc12)n1cncn1 (stereo not drawn) [AVI-337]
- Average % competition: 14%

SMILES: O=C1CCc2cc(C(=O)N3CC(C(=O)O)CCC34CCCC4)c(F)cc2N1 (stereo not drawn) [AVI-338]
- Ligand efficiency (binding enery per heavy atom): 0.16
- Ki (dose-response): 740 µM
- IC50 (dose-response, read-out: IC50): 800 µM

SMILES: Nc1cc(N2CCC3CCCCC3C2)ncn1 (stereo not drawn) [AVI-339]
- IC50 (dose-response, read-out: IC50): > 1000 µM
- Average % competition [1]: <10%

SMILES: CC1(c2ccc(F)cc2)CN(C(=O)c2cnc(N)nc2C(F)(F)F)C1 [AVI-340]
- Average % competition: 20%

SMILES: Cn1ccc2cc(NC(=O)C3CC(=O)NC4CCCCC43)ccc21 (stereo not drawn) [AVI-342]
- Average % competition: <10%

SMILES: Cc1nc(N)ncc1C(=O)NCC(O)Cc1ccc(Cl)cc1 (stereo not drawn) [AVI-343]
- Average % competition: <10%

SMILES: COc1ccc(-c2nccc(N3CCC(c4ccsc4)CC3)n2)cc1 [AVI-344]
- Average % competition: <10%

SMILES: CNc1ccc(NS(=O)(=O)c2cc3cccc(C)c3s2)cn1 [AVI-345]
- inhibition at 200 µM [2]: 18%
- Average % competition [1]: 18%

SMILES: O=c1[nH]c2ccccc2cc1CNc1nc(C2CC2)ns1 [AVI-346]
- IC50 (dose-response, read-out: IC50): > 1000 µM
- Average % competition [1]: <10%

SMILES: Cc1ccc(CC(=O)N2CCSC23CC(C(=O)O)C3)cc1O (stereo not drawn) [AVI-347]
- Average % competition: <10%

SMILES: CC(NC(=O)c1ccc(N)nc1Cl)C(O)c1cccc(F)c1 (stereo not drawn) [AVI-349]
- Average % competition: 15%

SMILES: O[C@@]1(Cn2ccnn2)CCCN(c2ncnc3[nH]ccc23)C1 [AVI-608]
- Average % competition [3]: 8%
- inhibition at 200 µM [2]: < 10%

SMILES: O[C@@H]1CNCC[C@H]1Nc1ncnc2[nH]ccc12 [AVI-613]
- Average % competition [4]: <10%
- inhibition at 200 µM [2]: < 10%

SMILES: CN(C)C[C@@]1(O)CCCN(c2ncnc3[nH]ccc23)C1 [AVI-614]
- Average % competition [3]: <10%
- inhibition at 200 µM [2]: < 10%

SMILES: O[C@H]1CNCC[C@@H]1Nc1ncnc2[nH]ccc12 [AVI-615]
- inhibition at 200 µM [5]: < 10%
- inhibition at 200 µM [2]: < 10%

SMILES: O=C(O)C(F)(F)F.OC1c2ccccc2CC1Nc1ncnc2[nH]ccc12 (stereo not drawn) [AVI-3634]
- Average % competition [4]: <10%
- inhibition at 200 µM [2]: < 10%

SMILES: O=C(O)C(F)(F)F.OCC(Nc1ncnc2[nH]ccc12)C1CCCO1 (stereo not drawn) [AVI-3645]
- Average % competition [4]: 54%
- inhibition at 200 µM [2]: 54%

SMILES: O=C(O)C(F)(F)F.OC[C@@H](CCc1ccccc1)Nc1ncnc2[nH]ccc12 [AVI-3654]
- Average % competition [4]: 27%
- inhibition at 200 µM [2]: 27%

SMILES: CC(C)CCC(CO)Nc1ncnc2[nH]ccc12.O=C(O)C(F)(F)F (stereo not drawn) [AVI-3668]
- Average % competition [4]: 38%
- inhibition at 200 µM [2]: 38%

SMILES: O=C(O)C(F)(F)F.O=[N+]([O-])c1ccc(C(O)C(CO)Nc2ncnc3[nH]ccc23)cc1 (stereo not drawn) [AVI-3672]
- Average % competition [4]: 43%
- inhibition at 200 µM [2]: 43%

SMILES: O=C(O)C(F)(F)F.OCC(CC1CCOCC1)Nc1ncnc2[nH]ccc12 (stereo not drawn) [AVI-3676]
- Average % competition [4]: <10%
- inhibition at 200 µM [2]: < 10%

SMILES: O=C(O)C(F)(F)F.OCC(Nc1ncnc2[nH]ccc12)C(O)C1CCCCC1 (stereo not drawn) [AVI-3687]
- Average % competition [4]: 33%
- inhibition at 200 µM [2]: 33%

SMILES: O=C(O)C(F)(F)F.OCC(Cc1cccc(F)c1)Nc1ncnc2[nH]ccc12 (stereo not drawn) [AVI-3706]
- Average % competition [4]: 77%
- inhibition at 200 µM [2]: 77%

SMILES: O=C(O)C(F)(F)F.OCC1C2C=CC(C2)N1c1ncnc2[nH]ccc12 (stereo not drawn) [AVI-3712]
- inhibition at 200 µM [5]: 55%
- inhibition at 200 µM [2]: 55%

SMILES: CC(C)(C)C(O)CC(CO)Nc1ncnc2[nH]ccc12.O=C(O)C(F)(F)F (stereo not drawn) [AVI-3714]
- Average % competition [4]: <10%
- inhibition at 200 µM [2]: < 10%

SMILES: OC1CC(Cn2ccnc2)CC1Nc1ncnc2[nH]ccc12 (stereo not drawn) [AVI-3725]
- Average % competition [4]: 29%
- inhibition at 200 µM [2]: 29%

SMILES: Cc1c[nH]c2ncnc(NCC3(O)CCCCC3)c12 [AVI-3761, 1-(((5-methyl-7H-pyrrolo[2,3-d]pyrimidin-4-yl)amino)methyl)cyclohexan-1-ol]
- Ki: 12 µM
- IC50 [6]: 13 µM

SMILES: CC(O)C1CCCN1c1ncnc2[nH]ccc12 (stereo not drawn) [AVI-4062]
- fold decrease in affinity relative to AVI-607 (HTRF): ~ 10 fold
- Ki [7]: 51 µM
- Ligand efficiency (binding enery per heavy atom) [7]: 0.35
- IC50 [6]: 55 µM

SMILES: C[C@H]1CC[C@H](CO)N(c2ncnc3[nH]ccc23)C1 [AVI-4063]
- Ki [7]: 52 µM
- Ligand efficiency (binding enery per heavy atom) [7]: 0.33
- IC50 [8]: 56 µM

SMILES: OCC1CCC2(CCOCC2)CN1c1ncnc2[nH]ccc12 (stereo not drawn) [AVI-4065]
- Ki [7]: 400 µM
- Ligand efficiency (binding enery per heavy atom) [7]: 0.21
- IC50 [8]: 430 µM

SMILES: Cc1c[nH]c2ncnc(NCC3(O)CCOCC3)c12 [AVI-4194, 4-(((5-methyl-7H-pyrrolo[2,3-d]pyrimidin-4-yl)amino)methyl)tetrahydro-2H-pyran-4-ol]
- Ki [7]: 150 µM
- Ligand efficiency (binding enery per heavy atom) [7]: 0.28
- IC50 [8]: 160 µM

SMILES: Cc1c[nH]c2ncnc(NCC3(O)CCSCC3)c12 [AVI-4195, 4-(((5-methyl-7H-pyrrolo[2,3-d]pyrimidin-4-yl)amino)methyl)tetrahydro-2H-thiopyran-4-ol]
- Ki [7]: 48 µM
- Ligand efficiency (binding enery per heavy atom) [7]: 0.31
- IC50 [8]: 52 µM

SMILES: CC1CCCC(O)(CNc2ncnc3[nH]ccc23)C1 (stereo not drawn) [AVI-4307]
- Ki [7]: 37 µM
- Ligand efficiency (binding enery per heavy atom) [7]: 0.32
- IC50 [8]: 40 µM

SMILES: OC1(CNc2ncnc3[nH]ccc23)CCC(F)(F)CC1 [AVI-4308]
- Ki [7]: 130 µM
- Ligand efficiency (binding enery per heavy atom) [7]: 0.27
- IC50 [8]: 140 µM

SMILES: OC1(CNc2ncnc3[nH]ccc23)CCCC(C(F)(F)F)C1 (stereo not drawn) [AVI-4309]
- Ki [7]: 140 µM
- Ligand efficiency (binding enery per heavy atom) [7]: 0.24
- IC50 [8]: 150 µM

SMILES: CC1(C)CCC(O)(CNc2ncnc3[nH]ccc23)CC1 [AVI-4310]
- Ki [7]: 71 µM
- Ligand efficiency (binding enery per heavy atom) [7]: 0.29
- IC50 [8]: 76 µM

SMILES: OC1(CNc2ncnc3[nH]ccc23)CCCOC1 (stereo not drawn) [AVI-4311]
- Ki [7]: 160 µM
- Ligand efficiency (binding enery per heavy atom) [7]: 0.29
- IC50 [8]: 170 µM

SMILES: OC1(CNc2ncnc3[nH]ccc23)COC2CC1C2 (stereo not drawn) [AVI-4313]
- Ki [7]: 120 µM
- Ligand efficiency (binding enery per heavy atom) [7]: 0.29
- IC50 [8]: 130 µM

SMILES: OC1(CNc2ncnc3[nH]ccc23)CCOCC1 [AVI-4314]
- Ki [7]: 210 µM
- Ligand efficiency (binding enery per heavy atom) [7]: 0.28
- IC50 [8]: 230 µM
